Key:
[1] = system: inactivated Group A β-hemolytic streptococcus; assay: Visual evaluation of red line on detection part of immunochromatographic device; conditions: for Result of Visual Evaluation (After Storage at 50° C. for 24 Hours): device stored at 50° C. for 24 hours, then positive analyte sample 5×10^5 org/mL, 5 minutes; for Result of Visual Evaluation (After 5 Minutes): positive analyte sample 5×10^5 org/mL, 150 μL, member order of FIG. 3, acid content per pad as in Table 1
Method: (§1) The immunochromatographic device and the analyte dilution solution produced above were used, and a sample obtained by adding inactivated Group A β-hemolytic streptococcus at 5×10^5 org/mL was used as a positive analyte sample.
The analyte sample in an amount of 150 μL was dropped to the sample droplet receiving part of the device and developed, and a visual evaluation was made after 5 minutes. Any of the following marks was given: “+” (positive) when the red line on the detection part (4) could be visually observed; “++” (strong positive) when the red line could be visually observed clearly; “±” (weak positive) when a light red line could be visually observed; and “−” (negative) when the red line could not be visually observed.
Separately from the above evaluation, the immunochromatographic device produced above were stored at 50° C. for 24 hours, and then the measurement and the visual evaluation were conducted. […]
Immunochromatographic kits were produced and measurement was conducted in the same manners as in Example 1 except that the kind of the acid anhydride in Example 1 was changed to those shown in Table 1.

[2] = Sublimation at 25° C. at 20 Pa (weight change after 12 hours under reduced pressure); format: physicochemical; conditions: 1 g acid, reduced pressure 25° C., weight change within or exceeding 5%
Method: Whether the acids used in the Examples and the Comparative Examples sublimate at 25° C. at 20 Pa was examined by the following method. First, 1 g of an acid was measured in a glass vial, and the weight was measured after subjecting the acid to reduced pressure at 25° C. at 20 Pa for 12 hours.

[3] = system: inactivated Group A β-hemolytic streptococcus; assay: Color intensity of red line on detection part measured with immunochromatoreader
Method: as §1
The color intensity of the red line on the detection part (4) five minutes after starting development was measured with an immunochromatoreader (manufactured by Hamamatsu Photonics K.K.). As a result, the color intensity was 83.7 mAbs.
An immunochromatographic kit was produced in the same manner as in Example 1 except that the sample droplet receiving member (1), the acid anhydride containing member (7), the labeling substance retaining member (2), the chromatography medium member (3) having the detection part (4) and the absorption member (5) were pasted to a base material composed of a backing sheet (6) in a manner that the members were linked in this order along the direction of sample development (the order shown in FIG. 1), and the color intensity was measured with an immunochromatoreader (manufactured by Hamamatsu Photonics K.K.). As a result, the color intensity after five minutes was 48.1 mAbs.
An immunochromatographic kit was produced in the same manner as in Example 3 except that “malic acid” was used instead of “bicyclo[2,2,2]oct-7-ene-2,3,5,6-tetracarboxylic dianhydride”, which is the acid anhydride, and the color intensity after five minutes was measured with an immunochromatoreader (manufactured by Hamamatsu Photonics K.K.). As a result, the color intensity was 4.1 mAbs.

[4] = five minutes after starting development, member order of FIG. 3 (acid-containing member downstream of labeling member)

Compound | Result of Visual Evaluation (After Storage at 50° C. for 24 Hours) [1] | Result of Visual Evaluation (After 5 Minutes) [1] | Sublimation at 25° C. at 20 Pa [2] | color intensity of the red line on the detection part (4) [3, 4] | color intensity of the red line on the detection part (4) ([3]; after five minutes, member order of FIG. 1 (acid anhydride member upstream of labeling member))
N[C@@H](CCC(=O)O)C(=O)O [compound 7, glutamic acid] | − | − |  |  | 
CCCCCCCC/C=C\CCCCCCCC(=O)O [compound 6, oleic acid] | − | − |  |  | 
O=C1OC(=O)[C@@H]2CC=CC[C@H]12 [Comparative Example 9, cis-4-cyclohexene-1,2-dicarboxylic anhydride] | − | + | A (“A” indicates that the acid did not sublimate) |  | 
C=C(CC(=O)O)C(=O)O [compound 4, itaconic acid] | − | − |  |  | 
O=C1OC(=O)C2CC3C(=O)OC(=O)C3CC12 (stereo not drawn) [Example 5, 1,2,4,5-cyclohexanetetracarboxylic dianhydride] | ++ | ++ | A (“A” indicates that the acid did not sublimate) |  | 
CC#Cc1ccc2c(c1)C(=O)OC2=O [Example 3, 4-(1-propynyl)phthalic anhydride] | + | + | A (“A” indicates that the acid did not sublimate) |  | 
O=C1CC(c2ccccc2)C(=O)O1 (stereo not drawn) [compound 8, phenylsussinic acid anhydride] | − | + | A (“A” indicates that the acid did not sublimate) |  | 
CC(=O)Nc1cccc2c1C(=O)OC2=O [Example 4, 3-acetamidophthalic anhydride] | + | + | A (“A” indicates that the acid did not sublimate) |  | 
O=C(O)CC(O)C(=O)O (stereo not drawn) [compound 3, malic acid] | − | − |  | 4.1 mAbs | 
O=C(O)CN(CCO)CCO [compound 5, N,N-bis(2-hydroxyethyl)glycine] | − | − |  |  | 
octadecenylsuccinic anhydride [Reference Example 2] | ± | ± | A (“A” indicates that the acid did not sublimate) |  | 
O=c1oc(=O)c2cc3c(=O)oc(=O)c3cc12 [Example 2, pyromellitic anhydride] | ++ | ++ | A (“A” indicates that the acid did not sublimate) |  | 
O=C1OC(=O)C2C3C=CC(C12)C1C(=O)OC(=O)C31 (stereo not drawn) [Example 1, bicyclo[2,2,2]oct-7-ene-2,3,5,6-tetracarboxylic dianhydride] | ++ | ++ | A (“A” indicates that the acid did not sublimate) | 83.7 mAbs | 48.1 mAbs
O=C1CCC(=O)O1 [compound 2, succinic anhydride] | − | ++ | B (“B” indicates that the acid sublimated) |  | 
O=C1CC(C2CC3C(=O)OC(=O)C3c3ccccc32)C(=O)O1 (stereo not drawn) [Example 6, 4-(2,5-dioxotetrahydrofuran-3-yl)-1,2,3,4-tetrahydronaphthalene-1,2-dicarboxylic anhydride] | ++ | ++ | A (“A” indicates that the acid did not sublimate) |  | 
O=C(ON1C(=O)CCC1=O)c1ccccc1 [Comparative Example 1, N-(benzoyloxy)succinimide] | − | − |  |  | 
